Measurements as given in paper PMC8113459, “Selective inhibition of cullin 3 neddylation through covalent targeting DCN1 protects mice from acetaminophen-induced liver toxicity” (Nature Communications, 2021).
Where “and” joins values, the source holds several entries; their conditions need not be identical. Identical values can stand only once.

Assays:
Type in all cases: cell-based, human
[1] = Cell viability assay (WST-8), HCT116; details: human, HCT116 cells, replicates, read-out: cell viability relative to control
Procedure: (§1) Cell viability assay was performed as previously described. The effect of DCN1 inhibitors on cell growth was evaluated by a WST-8 [2-(2-methoxy-4-nitrophenyl)-3-(4-nitrophenyl)-5-(2,4-disulfophenyl)-2H-tetrazolium, monosodium salt assay (Dojindo Molecular Technologies, Inc). Cells (2000–3000 cells in each well) were seeded in 96-well tissue culture plates in medium (100 μL) and treated with serial dilution of DCN1 inhibitors for 3 days. At the end of incubation, WST-8 dye (20 μL) was added to each well and incubated for 1–3 h, then the absorbance was measured in a microplate reader (Molecular Devices) at 450 nm. Cell growth inhibition was evaluated as the ratio of the absorbance of the sample to that of the control. The values were inserted into Prism software, and the curves and the EC50 values were produced by Prism software.

HCT116 cells = test: Cell viability assay (WST-8), HCT116; details: for cell viability relative to control: replicates
Procedure: as §1

four cancer cell lines = test: Cell viability assay (WST-8), four cancer cell lines; details: concentrations up to 1000 nM, 72 h
Procedure: as §1

[2] = tested on: neddylation of cullin 1, 2, 4A, 4B, and 5; test: Western blot, neddylation of other cullin members
Procedure: (§2) Western blotting was performed as described previously. Treated cells were lysed by RIPA buffer supplemented with protease inhibitor. The expression level of indicated proteins was examined by immunoblotting analysis and GAPDH was used as the loading control. Antibodies were purchased commercially: cullin 1 (sc-17775, 1:500 dilution) and cullin 2 (sc-166506, 1:500 dilution) from Santa Cruz Biotech (Santa Cruz, CA); cullin 4A (PA5-14542, 1:1000 dilution), cullin 4B (PA5-50647, 1:1000 dilution), and DCN3 (DCUN1D3, PA5-44000, 1:1000 dilution) from Thermo Fisher Scientific (Wayne, MI); cullin 3 (2759, 1:1000), NRF2 (12721, 1:1000 dilution), HO-1 (70081, 1:1000 dilution), and Bim (2819, 1:1000 dilution) from Cell Signaling Technology (Boston, MA); DCN1 (GWB-E3D700, 1:1000 dilution) from GenWay Biotech (San Diego, CA); and cullin 5 (A302-173A, 1:500 dilution) from Bethyl Labs (Montgomery, TX). Results are representative of two independent experiments.

neddylation of cullin 3 = test: Western blot, cullin 3 neddylation in U2OS cells; details: U2OS, Fig. 6c
Procedure: as §2

U2OS cells = test: Cell viability assay (WST-8), U2OS; details: for cell viability relative to control: replicates
Procedure: as §1

[3] = Cell viability assay (WST-8), U2OS; details: human, U2OS cells, replicates, read-out: cell viability relative to control
Procedure: as §1

[4] = Cell viability assay (WST-8), MDA-MB-231; details: human, MDA-MB-231 cells, replicates, read-out: cell viability relative to control
Procedure: as §1

MDA-MB-231 cells = test: Cell viability assay (WST-8), MDA-MB-231; details: for cell viability relative to control: replicates
Procedure: as §1

[5] = Cell viability assay (WST-8), KYSE70; details: human, KYSE70 cells, replicates, read-out: cell viability relative to control
Procedure: as §1

KYSE70 cells = test: Cell viability assay (WST-8), KYSE70; details: for cell viability relative to control: replicates
Procedure: as §1

In the case of `NS(=O)(=O)OC[C@@H]1C[C@@H](n2ccc3c(N[C@H]4CCc5ccccc54)ncnc32)C[C@@H]1O` [MLN4924], the viability at 72 h ([1]; conc 3, 72 h) is reported as 103%, the viability at 72 h ([1]; conc 10, 72 h) is reported as 118% and the viability at 72 h ([1]; conc 30, 72 h) is reported as 106%. It also gave a viability at 72 h ([1]; conc 300, 72 h) of 26.5%, a viability at 72 h ([1]; conc 1000, 72 h) of 27.6% and an EC50 (HCT116 cells; Homo sapiens, HCT-116, 72 h, cell line assigned from panel order, read-out: EC50, cell growth inhibition) of 294 nM. The “cell viability relative to control” value (HCT116 cells; conc 3, 72 h) was 93.0769 and 97.803, the “cell viability relative to control” value (HCT116 cells; conc 10, 72 h) was 99.5045 and 108.03 and the “cell viability relative to control” value (HCT116 cells; conc 30, 72 h) was 98.1868 and 105.151. The “cell viability relative to control” value (HCT116 cells; conc 100, 72 h) was 42.5676 and 63.1319 and 54.6212, the “cell viability relative to control” value (HCT116 cells; conc 300, 72 h) was 39.0549 and 40.989 and the “cell viability relative to control” value (HCT116 cells; conc 1000, 72 h) was 32.8022 and 29.945. For the same compound, the “cytotoxicity / cell viability” value (four cancer cell lines) was “potently inhibits cell viability”, the “inhibition of neddylation of cullin members” value ([2]; THLE2, Fig. 6b) was “potently inhibits neddylation of all cullins” and the “time within which the neddylation of cullin 1 is effectively inhibited” value ([2]; U2OS, Fig. 6c) was ≤ 30 min. For the same compound, the “time within which the neddylation of cullin 3 is effectively inhibited” value (neddylation of cullin 3) was ≤ 30 min, the EC50 (U2OS cells; Homo sapiens, U2OS, 72 h, cell line assigned from panel order, read-out: EC50, cell growth inhibition) was 209 nM and the “cell viability relative to control” value (U2OS cells; conc 3, 72 h) was 108.902 and 87.9268 and 99.0244. The “cell viability relative to control” value (U2OS cells; conc 10, 72 h) was 107.561 and 98.1707, the “cell viability relative to control” value (U2OS cells; conc 30, 72 h) was 105.122 and 104.756 and the “cell viability relative to control” value (U2OS cells; conc 100, 72 h) was 49.6951 and 43.1707. The “cell viability relative to control” value (U2OS cells; conc 300, 72 h) was 47.5122 and 35 and 24.2561, the “cell viability relative to control” value (U2OS cells; conc 1000, 72 h) was 34.8293 and 26.6585 and the viability at 72 h ([3]; conc 10, 72 h) was 108%. It also gave a viability at 72 h ([3]; conc 30, 72 h) of 97.3%, a viability at 72 h ([3]; conc 100, 72 h) of 50.8% and a viability at 72 h ([3]; conc 1000, 72 h) of 21%. For the same compound, the viability at 72 h ([4]; conc 3, 72 h) was 106%, the viability at 72 h ([4]; conc 10, 72 h) was 98.2% and the viability at 72 h ([4]; conc 30, 72 h) was 78.8%. It also gave a viability at 72 h ([4]; conc 100, 72 h) of 43.4%, a viability at 72 h ([4]; conc 300, 72 h) of 25.5% and a viability at 72 h ([4]; conc 1000, 72 h) of 13.7%. For the same compound, the EC50 (MDA-MB-231 cells; Homo sapiens, MDA-MB-231, 72 h, cell line assigned from panel order, read-out: EC50, cell growth inhibition) was 154 nM, the “cell viability relative to control” value (MDA-MB-231 cells; conc 3, 72 h) was 94.1379 and 99.1954 and the “cell viability relative to control” value (MDA-MB-231 cells; conc 10, 72 h) was 109.785 and 104.516. For the same compound, the “cell viability relative to control” value (MDA-MB-231 cells; conc 30, 72 h) was 84.086 and 84.3011, the “cell viability relative to control” value (MDA-MB-231 cells; conc 100, 72 h) was 59.6774 and 48.8172 and the “cell viability relative to control” value (MDA-MB-231 cells; conc 300, 72 h) was 28.4946 and 44.3011. The “cell viability relative to control” value (MDA-MB-231 cells; conc 1000, 72 h) was 18.2796 and 26.5591, the viability at 72 h ([5]; conc 10, 72 h) was 110% and the viability at 72 h ([5]; conc 30, 72 h) was 76.4%. The viability at 72 h ([5]; conc 100, 72 h) was 59.5%, the viability at 72 h ([5]; conc 300, 72 h) was 41.9% and the viability at 72 h ([5]; conc 1000, 72 h) was 31%. The EC50 (KYSE70 cells; Homo sapiens, KYSE-70, 72 h, cell line assigned from panel order, read-out: EC50, cell growth inhibition) was 266 nM, the “cell viability relative to control” value (KYSE70 cells; conc 3, 72 h) was 119.091 and 98.7603 and 92.6446 and the “cell viability relative to control” value (KYSE70 cells; conc 10, 72 h) was 116.984 and 100.041. For the same compound, the “cell viability relative to control” value (KYSE70 cells; conc 30, 72 h) was 82.3967, the “cell viability relative to control” value (KYSE70 cells; conc 100, 72 h) was 57.9752 and the “cell viability relative to control” value (KYSE70 cells; conc 300, 72 h) was 39.3388. The “cell viability relative to control” value (KYSE70 cells; conc 1000, 72 h) was 29.2149.
